From patent publication US20250114338A1, “TETRAHYDRO-PYRIDO[3,4-b]INDOLE ESTROGEN RECEPTOR MODULATORS AND USES THEREOF” (Genentech, Inc., priority 2014, published 2025)

tested on: ER-alpha MCF7; assay: ER-alpha MCF7 HCS EC50; stated as measured by in vitro cell proliferation assays of Examples 902 and 903; type: cell-based; details: Homo sapiens, MCF7, MCF7 cells; Table 2
Method in brief: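 MCF7 cells seeded 1000-2000 cells/well for 16 h, then treated with nine-point 1:2 DMSO dilution series in quadruplicate at 37 °C, 5% CO2 for 4 days. Viable cells quantified by CellTiter-Glo ATP luminescence; EC50 calculated. Controls: fulvestrant at final 100 nM, DMSO 0.2% v/v.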

EC50 [nM] | SMILES
1.1 | C[C@H]1Cc2c([nH]c3cccc(F)c23)[C@H](c2c(F)cc(NC3CN(CCCF)C3)cc2F)N1C[C@@](C)(F)CO [Example 399, (R)-3-((1S,3S)-1-(2,6-difluoro-4-((1-(3-fluoropropyl)azetidin-3-yl)amino)phenyl)-5-fluoro-3-methyl-3,4-dihydro-1H-pyrido[3,4-b]indol-2(9H)-yl)-2-fluoro-2-methylpropan-1-ol]
0.023 | C[C@@H]1Cc2c([nH]c3cccc(F)c23)[C@@H](c2c(F)cc(NC3CN(CCCF)C3)cc2F)N1C[C@@](C)(F)CO [Example 400, (R)-3-((1R,3R)-1-(2,6-difluoro-4-((1-(3-fluoropropyl)azetidin-3-yl)amino)phenyl)-5-fluoro-3-methyl-3,4-dihydro-1H-pyrido[3,4-b]indol-2(9H)-yl)-2-fluoro-2-methylpropan-1-ol]
2.4 | C[C@H]1Cc2c([nH]c3cccc(F)c23)[C@H](c2c(F)cc(NC3CN(CCCF)C3)cc2F)N1C[C@](C)(F)CO [Example 401, (S)-3-((1S,3S)-1-(2,6-difluoro-4-((1-(3-fluoropropyl)azetidin-3-yl)amino)phenyl)-5-fluoro-3-methyl-3,4-dihydro-1H-pyrido[3,4-b]indol-2(9H)-yl)-2-fluoro-2-methylpropan-1-ol]
0.032 | C[C@@H]1Cc2c([nH]c3ccccc23)[C@@H](c2c(F)cc(OCCN3CC(CF)C3)cc2F)N1C[C@H](CO)CF [Example 402, (R)-3-((1R,3R)-1-(2,6-difluoro-4-(2-(3-(fluoromethyl)azetidin-1-yl)ethoxy)phenyl)-3-methyl-3,4-dihydro-1H-pyrido[3,4-b]indol-2(9H)-yl)-2-(fluoromethyl)propan-1-ol]
0.13 | C[C@@H]1Cc2c([nH]c3ccccc23)[C@@H](c2c(F)cc(OCCN3CC(CF)C3)cc2F)N1C[C@@H](CO)CF [Example 403, (S)-3-((1R,3R)-1-(2,6-difluoro-4-(2-(3-(fluoromethyl)azetidin-1-yl)ethoxy)phenyl)-3-methyl-3,4-dihydro-1H-pyrido[3,4-b]indol-2(9H)-yl)-2-(fluoromethyl)propan-1-ol]
0.745 | C[C@@H]1Cc2c([nH]c3ccccc23)[C@@H](c2c(F)cc(N(C)C3CN(CCCF)C3)cc2F)N1CC(C)(C)F [Example 404, N-(3,5-difluoro-4-((1R,3R)-2-(2-fluoro-2-methylpropyl)-3-methyl-2,3,4,9-tetrahydro-1H-pyrido[3,4-b]indol-1-yl)phenyl)-1-(3-fluoropropyl)-N-methylazetidin-3-amine]
0.23 | CC1(C)Cc2c([nH]c3ccccc23)[C@@H](c2c(F)cc(NC3CN(CCCF)C3)cc2F)N1CC(F)F [Example 405, (R)-N-(4-(2-(2,2-difluoroethyl)-3,3-dimethyl-2,3,4,9-tetrahydro-1H-pyrido[3,4-b]indol-1-yl)-3,5-difluorophenyl)-1-(3-fluoropropyl)azetidin-3-amine]
1.8 | CC1(C)Cc2c([nH]c3ccccc23)[C@H](c2c(F)cc(NC3CN(CCCF)C3)cc2F)N1CC(F)F [Example 406, (S)-N-(4-(2-(2,2-difluoroethyl)-3,3-dimethyl-2,3,4,9-tetrahydro-1H-pyrido[3,4-b]indol-1-yl)-3,5-difluorophenyl)-1-(3-fluoropropyl)azetidin-3-amine]
0.12 | C[C@@H]1Cc2c([nH]c3cccc(F)c23)[C@@H](c2c(F)cc(NC3CN(CCCF)C3)cc2F)N1CC(F)(F)F [Example 407, N-(3,5-difluoro-4-((1R,3R)-5-fluoro-3-methyl-2-(2,2,2-trifluoroethyl)-2,3,4,9-tetrahydro-1H-pyrido[3,4-b]indol-1-yl)phenyl)-1-(3-fluoropropyl)azetidin-3-amine]
6.3 | C[C@H]1Cc2c([nH]c3cccc(F)c23)[C@H](c2c(F)cc(NC3CN(CCCF)C3)cc2F)N1CC(F)(F)F [Example 408, N-(3,5-difluoro-4-((1S,3S)-5-fluoro-3-methyl-2-(2,2,2-trifluoroethyl)-2,3,4,9-tetrahydro-1H-pyrido[3,4-b]indol-1-yl)phenyl)-1-(3-fluoropropyl)azetidin-3-amine]
26 | C[C@H]1Cc2c([nH]c3c(F)cccc23)[C@H](c2c(F)cc(NC3CN(CCCF)C3)cc2F)N1CC(F)(F)F [Example 409, N-(3,5-difluoro-4-((1S,3S)-8-fluoro-3-methyl-2-(2,2,2-trifluoroethyl)-2,3,4,9-tetrahydro-1H-pyrido[3,4-b]indol-1-yl)phenyl)-1-(3-fluoropropyl)azetidin-3-amine]
0.12 | C[C@@H]1Cc2c([nH]c3c(F)cccc23)[C@@H](c2c(F)cc(NC3CN(CCCF)C3)cc2F)N1CC(F)(F)F [Example 410, N-(3,5-difluoro-4-((1R,3R)-8-fluoro-3-methyl-2-(2,2,2-trifluoroethyl)-2,3,4,9-tetrahydro-1H-pyrido[3,4-b]indol-1-yl)phenyl)-1-(3-fluoropropyl)azetidin-3-amine]
0.07 | C[C@@H]1Cc2c([nH]c3ccccc23)[C@@H](c2c(F)cc(OC3CN(CCCF)C3)cc2F)N1CC1(F)COC1 [Example 411, (1R,3R)-1-(2,6-difluoro-4-(1-(3-fluoropropyl)azetidin-3-yloxy)phenyl)-2-((3-fluorooxetan-3-yl)methyl)-3-methyl-2,3,4,9-tetrahydro-1H-pyrido[3,4-b]indole]
1.3 | C[C@H]1Cc2c([nH]c3cc(F)ccc23)[C@H](c2c(F)cc(NC3CN(CCCF)C3)cc2F)N1C[C@](C)(F)CO [Example 412, (S)-3-((1S,3S)-1-(2,6-difluoro-4-((1-(3-fluoropropyl)azetidin-3-yl)amino)phenyl)-7-fluoro-3-methyl-3,4-dihydro-1H-pyrido[3,4-b]indol-2(9H)-yl)-2-fluoro-2-methylpropan-1-ol]
0.018 | C[C@@H]1Cc2c([nH]c3cc(F)ccc23)[C@@H](c2c(F)cc(NC3CN(CCCF)C3)cc2F)N1C[C@@](C)(F)CO [Example 413, (R)-3-((1R,3R)-1-(2,6-difluoro-4-((1-(3-fluoropropyl)azetidin-3-yl)amino)phenyl)-7-fluoro-3-methyl-3,4-dihydro-1H-pyrido[3,4-b]indol-2(9H)-yl)-2-fluoro-2-methylpropan-1-ol]
0.12 | C[C@@H]1Cc2c([nH]c3cc(F)ccc23)[C@@H](c2c(F)cc(NC3CN(CCCF)C3)cc2F)N1C[C@](C)(F)CO [Example 414, (S)-3-((1R,3R)-1-(2,6-difluoro-4-((1-(3-fluoropropyl)azetidin-3-yl)amino)phenyl)-7-fluoro-3-methyl-3,4-dihydro-1H-pyrido[3,4-b]indol-2(9H)-yl)-2-fluoro-2-methylpropan-1-ol]
9.5 | C[C@H]1Cc2c([nH]c3cc(F)ccc23)[C@H](c2c(F)cc(NC3CN(CCCF)C3)cc2F)N1C[C@@](C)(F)CO [Example 415, (R)-3-((1S,3S)-1-(2,6-difluoro-4-((1-(3-fluoropropyl)azetidin-3-yl)amino)phenyl)-7-fluoro-3-methyl-3,4-dihydro-1H-pyrido[3,4-b]indol-2(9H)-yl)-2-fluoro-2-methylpropan-1-ol]
0.024 | C[C@@H]1Cc2c([nH]c3cccc(F)c23)[C@@H](c2c(F)cc(NC3CN(CCCF)C3)cc2F)N1CC(F)(F)CO [Example 416, 3-((1R,3R)-1-(2,6-difluoro-4-((1-(3-fluoropropyl)azetidin-3-yl)amino)phenyl)-5-fluoro-3-methyl-3,4-dihydro-1H-pyrido[3,4-b]indol-2(9H)-yl)-2,2-difluoropropan-1-ol]
